From patent US20160296437A1, “ORAL CARE ZINC COMPOSITIONS” (COLGATE-PALMOLIVE COMPANY, priority 2013, published 2016)

What was measured:
[1] = system: Actinobacillus actinomycetemcomitans (Aa) ATCC cat#29522; assay: Bacterial invasion of human periodontal ligament fibroblasts by Actinobacillus actinomycetemcomitans (internalized colony count); format: cell-based; conditions: for reduces internalized Actinobacillus actinomycetemcomitans: versus Aa alone, HPdLF cells
Experimental: (§1) Human periodontal ligament fibroblasts (HPdLF, Lonza cat#CC-7049) are seeded onto a plate and incubated at 37° C. in 5% CO2 overnight using SCGM bullet kit (Lonza, #CC-3205) containing Stromal cell basal medium, hFGF-B, insulin, FBS and GA-1000.
(§2) Pathogenic bacteria Actinobacillus actinomycetemcomitans (Aa) ATCC cat#29522 or Porphyromonas gingivalis (Pg) ATCC cat#33277) are incubated overnight at 37° C. (using tryptic soy broth for Actinobacillus actinomycetemcomitans and half-strength brain heart infusion (supplemented with yeast extract, hemin and vitK1) for Porphyromonas gingivalis). The optical density (OD) at 610 nm is read. The bacteria are centrifuged at 8000 rpm for 10 mins and the pellet resuspended in cell culture media and diluted to OD610 of 0.1 to 0.2.
(§3) The test sample (dissolved in water) is added to the cells and incubated at 37 C in 5% CO2 incubator for 30 minutes before the bacteria are added. The cells are infected with bacteria by adding the resuspended bacteria to the cells and further incubating at 37° C. in 5% CO2 incubator for 90 to 120 minutes.
The cells are washed five times with PBS to remove non-adherent bacteria. Fresh cell culture medium containing 1× penicillin (100 IU) and streptomycin (100 μg/ml) is added and the cells incubated at 37° C. in 5% CO2 incubator for 2 hours to kill extracellular bacteria. The medium is then removed and the cells washed three times with PBS. 1 ml 1% saponin solution in PBS is added to the infected cells for 5 minutes at. 37° C. to lyse the cells and release internalized bacteria. Dilutions (serial dilutions in PBS with dilution factor 10) are plated onto a suitable medium using a 100 μl sample and spread with a sterilized stick before incubating in an anaerobic chamber at 37° C. for 2-3 days and counting the resultant bacterial colonies.

[2] = system: Porphyromonas gingivalis (Pg) ATCC cat#33277; assay: Bacterial invasion of human periodontal ligament fibroblasts by Porphyromonas gingivalis (internalized colony count); format: cell-based
Experimental: as §1, §2, §3
The cells are washed five times with PBS to remove non-adherent bacteria. Fresh cell culture medium containing 1× penicillin (100 IU) and streptomycin (100 μg/ml) is added and the cells incubated at 37° C. in 5% CO2 incubator for 2 hours to kill extracellular bacteria. […]

Compound | Bacterial Count ([1]; Table 1, internalized Aa in HPdLF cells pretreated 30 minutes with sample, ZnO concentration not given, Aa alone 11800) | reduces internalized Actinobacillus actinomycetemcomitans ([1]; Table 1 experiment) | Bacterial Count ([1]; Table 2, internalized Aa in HPdLF cells, sample at 4 ppm, Aa alone 178) | reduces internalized Actinobacillus actinomycetemcomitans ([1]; Table 2 experiment, at 4 ppm) | Bacterial Count ([2]; Table 1, internalized Pg in HPdLF cells pretreated 30 minutes with sample, ZnO concentration not given, Pg alone 11460) | reduces internalized Porphyromonas gingivalis ([2]; Table 1 experiment, versus Pg alone, HPdLF cells) | Bacterial Count ([1]; Table 2, internalized Aa in HPdLF cells, sample at 8 ppm, Aa alone 178) | reduces internalized Actinobacillus actinomycetemcomitans ([1]; Table 2 experiment, at 8 ppm)
[O]=[Zn] [ZnO, zinc oxide] | 10040 | approximately 15% | 137 | approximately 23% | 10760 | approximately 6% |  | 
O=C([O-])CC(O)(CC(=O)[O-])C(=O)[O-].O=C([O-])CC(O)(CC(=O)[O-])C(=O)[O-].[Zn+2].[Zn+2].[Zn+2] [ZnCitrate, zinc citrate] |  |  |  |  |  |  | 64 | approximately 66%
